Measurements taken from ChEMBL document CHEMBL4396888, “Design and Synthesis of Potent, Selective Inhibitors of Protein Arginine Methyltransferase 4 against Acute Myeloid Leukemia” (J Med Chem, 2019).

Each compound was assayed against T1, Histone-arginine methyltransferase CARM1 (Homo sapiens, UniProt Q86X55) (assay: Inhibition of PRMT4 (unknown origin) using histone H3 (21 to 44 residues) as substrate measured after 60 mins in presence of SAM by AlphaLisa assay).
T1 sequence (Q86X55 whole entry): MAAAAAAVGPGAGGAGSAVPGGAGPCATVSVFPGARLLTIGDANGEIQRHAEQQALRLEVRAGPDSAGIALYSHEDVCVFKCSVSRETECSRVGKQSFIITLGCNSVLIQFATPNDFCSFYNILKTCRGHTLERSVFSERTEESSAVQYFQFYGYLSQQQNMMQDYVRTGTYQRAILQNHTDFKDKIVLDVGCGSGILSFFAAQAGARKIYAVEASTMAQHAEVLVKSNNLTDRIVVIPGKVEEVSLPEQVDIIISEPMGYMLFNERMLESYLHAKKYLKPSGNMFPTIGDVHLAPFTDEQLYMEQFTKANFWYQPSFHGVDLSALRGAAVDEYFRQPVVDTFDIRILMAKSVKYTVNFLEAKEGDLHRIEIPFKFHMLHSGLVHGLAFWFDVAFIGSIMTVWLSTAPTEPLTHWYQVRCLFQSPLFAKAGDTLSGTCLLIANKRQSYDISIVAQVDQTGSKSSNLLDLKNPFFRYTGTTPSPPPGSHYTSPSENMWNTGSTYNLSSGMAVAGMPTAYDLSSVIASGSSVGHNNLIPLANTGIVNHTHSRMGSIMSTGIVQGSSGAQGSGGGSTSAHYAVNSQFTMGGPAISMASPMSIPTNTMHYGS
In the case of `CNCC(O)CN1CCc2c(cccc2Oc2ccc(F)cc2)C1` (stereo unspecified), the IC50 is reported as 2610 nM. Work on `CNCC(O)CN1CCc2c(cccc2OCc2cccc(F)c2)C1` (stereo unspecified) yielded an IC50 of 530 nM. For `CNCC(O)CN1CCc2c(cccc2Oc2cccc(F)c2)C1` (stereo unspecified), the IC50 was 2310 nM. `CNCC(O)CN1CCc2ccccc2CC1` (stereo unspecified) was tested, and the IC50 was 8340 nM. With `CNCCN1CCC(OCc2ccccc2)CC1` the IC50 was 32 nM. `CNCC(O)CN1CCc2c(Br)cccc2C1` (stereo unspecified) was tested, and the IC50 was 130 nM. For `CNCC(O)CN1CCc2c(cccc2Oc2ccc(F)c(Cl)c2)C1` (stereo unspecified), the IC50 was 2050 nM. Compound `CNCC(O)CN1CCc2cccc(Br)c2C1` (stereo unspecified) has an IC50 of 772 nM. `CNCC(O)CN1CCc2c(cccc2Oc2cc(C)cc(C)c2)C1` (stereo unspecified) showed an IC50 of 1990 nM. `CNCC(O)CN1CCc2c(cccc2OCc2ccc(C(C)(C)C)cc2)C1` (stereo unspecified) gave an IC50 of 1950 nM. For `CNCC(O)CN1CCc2c(cccc2Oc2cccc(N)c2)C1` (stereo unspecified), the IC50 was 3490 nM. `CNCC(O)CN1CCc2c(cccc2OCc2ccc(Cl)cc2)C1` (stereo unspecified) showed an IC50 of 37 nM. `CNCC(O)CN1CCc2c(cccc2OCc2ccc(C#N)cc2)C1` (stereo unspecified) was tested, and the IC50 was 305 nM. With `CNCC(O)CN1CCc2cc(Br)ccc2C1` (stereo unspecified) the IC50 was 4480 nM. Compound `CNCC(O)CN1CCc2ccccc2C1` (stereo unspecified) has an IC50 of 5310 nM. Compound `CNCC(O)CN1CCCc2c(Br)cccc2C1` (stereo unspecified) has an IC50 of 785 nM. `CNCC(O)CN1CCc2c(cccc2OCc2ccc(-c3ccccc3)cc2)C1` (stereo unspecified) gave an IC50 of 120 nM. `CNCC(O)CN1CCc2ccc(Br)cc2C1` (stereo unspecified) showed an IC50 of 5220 nM. `CNCC(O)CN1CCc2c(cccc2-c2ccccc2)C1` (stereo unspecified) showed an IC50 of 465 nM. Work on `CNCC(O)CN1CCc2c(cccc2NS(=O)(=O)c2ccccc2)C1` (stereo unspecified) yielded an IC50 of 4260 nM. `CNCC(O)CN1CCc2c(cccc2OCc2ccccc2)C1` (stereo unspecified) was tested, and the IC50 was 165 nM. `CNCC(O)CN1CCc2c(cccc2Oc2ccc(C#N)cc2)C1` (stereo unspecified) was tested, and the IC50 was 2310 nM. `CNCC(O)CN1CCOc2ccccc2C1` (stereo unspecified) gave an IC50 greater than 10000 nM. `CNCC(O)CN1CCc2c(cccc2OCc2ccccc2F)C1` (stereo unspecified) gave an IC50 of 254 nM. In the case of `CNCC(O)CN1CCc2c(cccc2NC(=O)c2ccccc2)C1` (stereo unspecified), the IC50 is reported as 6120 nM. `CNCC(O)CN1Cc2ccccc2C1` (stereo unspecified) was tested, and the IC50 was 2460 nM. `CNCC(O)CN1CCc2c(cccc2NC(=O)Nc2ccccc2)C1` (stereo unspecified) showed an IC50 of 3820 nM. With `CNCC(O)CN1CCc2c(cccc2Oc2ccccc2F)C1` (stereo unspecified) the IC50 was 2070 nM. `CNCC(O)CN1CCc2c(cccc2Oc2cccc(-c3nccs3)c2)C1` (stereo unspecified) gave an IC50 of 658 nM. `CNCC(O)CN1CCc2c(cccc2OCc2ccc(F)cc2)C1` (stereo unspecified) was tested, and the IC50 was 228 nM. With `CNCC(O)CN1CCc2c(cccc2Oc2ccccc2)C1` (stereo unspecified) the IC50 was 270 nM. Compound `CNCC(O)CN1CCc2c(cccc2NCc2ccccc2)C1` (stereo unspecified) has an IC50 of 343 nM. Work on `CNCC(O)CN1CCc2c(cccc2OCc2cccc(-c3nccs3)c2)C1` (racemic) yielded an IC50 of 43 nM. Compound `CNCC(O)CN1CCc2c(cccc2Oc2ccc(-c3nccs3)cc2)C1` (stereo unspecified) has an IC50 of 279 nM. For `CNCC(O)CN1CCc2c(cccc2C(=O)Nc2ccccc2)C1` (stereo unspecified), the IC50 was 7980 nM. With `CNCC(O)CN1CCCc2ccccc2C1` (stereo unspecified) the IC50 was 3190 nM. `CNCC(O)CN1CCc2c(cccc2Oc2ccc(Cl)cc2)C1` (stereo unspecified) was tested, and the IC50 was 1180 nM. `CNCC(O)CN1CCc2c(cccc2Nc2ccccc2)C1` (stereo unspecified) showed an IC50 of 2110 nM. `CNCC(O)CN1CCc2c(cccc2OCc2ccc(-c3nccs3)cc2)C1` (racemic) showed an IC50 of 31 nM. For `CNCC(O)CN1CCc2cc(Oc3ccccc3)ccc2C1` (stereo unspecified), the IC50 was 900 nM. Work on `CNC[C@H](O)CN1CCc2c(cccc2OCc2ccc(-c3nccs3)cc2)C1` yielded an IC50 of 101 nM. `CNCC(O)CN1CCc2cc(OCc3ccccc3)ccc2C1` (stereo unspecified) gave an IC50 of 475 nM. `CNCC(O)CN1CCc2c(cccc2C(=O)NCc2ccccc2)C1` (stereo unspecified) was tested, and the IC50 was 2130 nM.

What follows are compounds tested against Protein arginine N-methyltransferase 6 (Homo sapiens, UniProt Q96LA8) (assay: Inhibition of PRMT6 (unknown origin) preincubated for 15 mins followed by substrate addition and measured after 60 mins by AlphaLisa assay).
Protein arginine N-methyltransferase 6, sequence (Q96LA8 whole entry): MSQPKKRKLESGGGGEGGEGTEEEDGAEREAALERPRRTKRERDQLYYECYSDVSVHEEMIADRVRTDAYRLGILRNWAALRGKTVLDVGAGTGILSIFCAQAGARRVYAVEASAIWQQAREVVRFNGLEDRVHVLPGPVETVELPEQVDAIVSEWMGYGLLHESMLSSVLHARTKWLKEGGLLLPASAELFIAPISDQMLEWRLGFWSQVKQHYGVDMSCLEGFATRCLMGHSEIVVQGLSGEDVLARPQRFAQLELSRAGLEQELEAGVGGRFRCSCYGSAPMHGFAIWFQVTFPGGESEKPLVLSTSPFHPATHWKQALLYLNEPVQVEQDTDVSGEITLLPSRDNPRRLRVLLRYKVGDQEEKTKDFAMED
`CNCC(O)CN1CCc2c(Br)cccc2C1` (stereo unspecified) gave an IC50 of 41200 nM.

Each compound was assayed against T1, Histone-arginine methyltransferase CARM1 (assay: Inhibition of PRMT4 (unknown origin) using biotinylated […] (1 to 24 residues) as substrate in presence of [3H]SAM by scintillation proximity assay).
Work on `CC(C)Oc1ccc(-c2c[nH]cc2CN(C)CCN)cc1` yielded an IC50 of 4 to 119 nM.

These compounds were tested against Protein arginine N-methyltransferase 8 (Homo sapiens, UniProt Q9NR22) (assay: Inhibition of PRMT8 (unknown origin) using biotinylated histone H4 (1 to 24 residues) as substrate in presence of [3H]SAM by scintillation proximity assay).
Protein arginine N-methyltransferase 8, sequence (Q9NR22 whole entry, the tested form may be a part): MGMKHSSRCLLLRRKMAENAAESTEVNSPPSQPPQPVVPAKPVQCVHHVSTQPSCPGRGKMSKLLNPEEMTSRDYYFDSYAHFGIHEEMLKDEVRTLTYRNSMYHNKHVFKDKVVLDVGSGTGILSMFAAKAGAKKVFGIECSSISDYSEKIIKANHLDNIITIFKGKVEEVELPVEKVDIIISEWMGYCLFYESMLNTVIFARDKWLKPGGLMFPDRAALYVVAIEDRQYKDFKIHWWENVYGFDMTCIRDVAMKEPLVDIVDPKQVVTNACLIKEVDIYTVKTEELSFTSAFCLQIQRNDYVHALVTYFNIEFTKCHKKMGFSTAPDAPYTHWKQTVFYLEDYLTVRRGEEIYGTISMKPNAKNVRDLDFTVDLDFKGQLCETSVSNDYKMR
`CC(C)Oc1ccc(-c2c[nH]cc2CN(C)CCN)cc1` gave an IC50 of 4 to 119 nM.
